# Measured values published in patent US12410171B2, “Tropomyosin receptor kinase (TRK) degradation compounds and methods of use” (Cullgen (Shanghai), Inc., priority 2020, dated 2025).
# Biological target: T1, TPM3-TRKA fusion protein (Homo sapiens, UniProt P04629)
# T1 construct: The resulted chimeric proteins always retain the kinase domain of TRK proteins; TPM3 (fusion partner, N-terminal part of tropomyosin alpha-3, P06753); endogenous in cells; host or cells: KM12 colon cancer cells; the other entry of the earlier key: TPM3 (P06753, Tropomyosin alpha-3 chain)
# Assay: TPM3-TRKA fusion protein levels in KM12 cells (Western blot)
# Format: cell-based
# Conditions: 16 h; TPM3-TRKA degradation in KM12 cells at 10 nM compound, category of percentage degradation; read-out: Degradation (at 10 nM)
# Outline: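 KM12 colon cancer cells were treated with DMSO or compounds at 0.1–100 nM, 0.4–30 nM or other stated concentrations for 4, 8–16 or 16 h. RIPA lysates were BCA-normalized and resolved by SDS-PAGE. TPM3-TRKA was detected by chemiluminescent Western blot, with bands quantified by densitometry.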
# T1 sequence (P04629 with tags, fused parts or gaps): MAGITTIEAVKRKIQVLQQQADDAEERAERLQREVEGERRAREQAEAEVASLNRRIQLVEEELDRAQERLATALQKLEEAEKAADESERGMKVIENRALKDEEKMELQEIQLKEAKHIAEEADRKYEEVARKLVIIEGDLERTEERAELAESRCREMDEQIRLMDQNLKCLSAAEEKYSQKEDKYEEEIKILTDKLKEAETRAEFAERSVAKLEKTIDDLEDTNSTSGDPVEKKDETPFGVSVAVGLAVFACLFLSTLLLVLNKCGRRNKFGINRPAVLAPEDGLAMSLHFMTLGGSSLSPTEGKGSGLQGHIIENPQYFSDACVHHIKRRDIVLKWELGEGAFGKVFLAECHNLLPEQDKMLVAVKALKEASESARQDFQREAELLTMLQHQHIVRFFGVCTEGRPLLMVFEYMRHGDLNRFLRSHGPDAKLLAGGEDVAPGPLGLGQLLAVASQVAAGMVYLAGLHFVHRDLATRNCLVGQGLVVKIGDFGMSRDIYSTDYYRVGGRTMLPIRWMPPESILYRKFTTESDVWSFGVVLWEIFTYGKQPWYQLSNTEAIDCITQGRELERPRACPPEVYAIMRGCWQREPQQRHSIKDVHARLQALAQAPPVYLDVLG
row,SMILES,percent degradation of TPM3-TRKA protein at 0.01 µM
1,"O=C(CN1CCN(c2ccc(C(=O)Nc3n[nH]c4ccc(Cc5cc(F)cc(F)c5)cc34)c(NC3CCOCC3)c2)CC1)NCCCCNc1ccc2c(c1)C(=O)N(C1CCC(=O)NC1=O)C2=O (stereo not drawn) [TR-156, N-(5-(3,5-Difluorobenzyl)-1H-indazol-3-yl)-4-(4-(2-((4-((2-(2,6-dioxopiperidin-3-yl)-1,3-dioxoisoindolin-S-yl)amino)butyl)amino)-2-oxoethyl)piperazin-1-yl)-2-((tetrahydro-2H-pyran-4-yl)amino)benzamide]",> 80%
2,"O=C1CCC(N2C(=O)c3cccc(NCCC(=O)N4CCN(c5ccc(C(=O)Nc6n[nH]c7ccc(Cc8cc(F)cc(F)c8)cc67)c(NC6CCOCC6)c5)CC4)c3C2=O)C(=O)N1 (stereo not drawn) [CPD-051, N-(5-(3,5-Difluorobenzyl)-1H-indazol-3-yl)-4-(4-(3-((2-(2,6-dioxopiperidin-3-yl)-1,3-dioxoisoindolin-4-yl)amino)propanoyl)piperazin-1-yl)-2-((tetrahydro-2H-pyran-4-yl)amino)benzamide]",> 80%
3,"O=C1CCC(N2C(=O)c3cccc(NCCOCCC(=O)N4CCN(c5ccc(C(=O)Nc6n[nH]c7ccc(Cc8cc(F)cc(F)c8)cc67)c(NC6CCOCC6)c5)CC4)c3C2=O)C(=O)N1 (stereo not drawn) [CPD-030, N-(5-(3,5-Difluorobenzyl)-1H-indazol-3-yl)-4-(4-(3-(2-((2-(2,6-dioxopiperidin-3-yl)-1,3-dioxoisoindolin-4-yl)amino)ethoxy)propanoyl)piperazin-1-yl)-2-((tetrahydro-2H-pyran-4-yl)amino)benzamide]",> 80%
4,"O=C1CCC(N2C(=O)c3cccc(NCCOCCOCCC(=O)N4CCN(c5ccc(C(=O)Nc6n[nH]c7ccc(Cc8cc(F)cc(F)c8)cc67)c(NC6CCOCC6)c5)CC4)c3C2=O)C(=O)N1 (stereo not drawn) [CPD-032, N—(S-(3,5-Difluorobenzyl)-1H-indazol-3-yl)-4-(4-(3-(2-(2-((2-(2,6-dioxopiperidin-3-yl)-1,3-dioxoisoindolin-4-yl)amino)ethoxy)ethoxy)propanoyl)piperazin-1-yl)-2-((tetrahydro-2H-pyran-4-yl)amino)benzamide]",> 80%
5,"O=C1CCC(N2C(=O)c3ccc(NCCCC(=O)N4CCN(c5ccc(C(=O)Nc6n[nH]c7ccc(Cc8cc(F)cc(F)c8)cc67)c(NC6CCOCC6)c5)CC4)cc3C2=O)C(=O)N1 (stereo not drawn) [TR-169, N-(5-(3,5-Difluorobenzyl)-1H-indazol-3-yl)-4-(4-(4-((2-(2,6-dioxopiperidin-3-yl)-1,3-dioxoisoindolin-S-yl)amino)butanoyl)piperazin-1-yl)-2-((tetrahydro-2/-pyran-4-yl)amino)benzamide]",> 80%
6,"O=C(CN1CCN(c2ccc(C(=O)Nc3n[nH]c4ccc(Cc5cc(F)cc(F)c5)cc34)c(NC3CCOCC3)c2)CC1)NCCCCCCNc1cccc2c1C(=O)N(C1CCC(=O)NC1=O)C2=O (stereo not drawn) [TR-147, N—(S-(3,5-Difluorobenzyl)-1H-indazol-3-yl)-4-(4-(2-((6-((2-(2,6-dioxopiperidin-3-yl)-1,3-dioxoisoindolin-4-yl)amino)hexyl)amino)-2-oxoethyl)piperazin-1-yl)-2-((tetrahydro-2H-pyran-4-yl)amino)benzamide]",> 80%
7,"O=C1CCC(N2C(=O)c3cccc(NCCCCCC(=O)N4CCN(c5cccc(-c6cnc7ccc(N8CCC[C@@H]8c8cccc(F)c8)nn67)n5)CC4)c3C2=O)C(=O)N1 (stereo partly drawn) [CPD-015, 2-(2,6-Dioxopiperidin-3-yl)-4-((6-(4-(6-(6-((R)-2-(3-fluorophenyl)pyrrolidin-1-yl)imidazo[1,2-b]pyridazin-3-yl)pyridin-2˜yl)piperazin-1-yl)-6-oxohexyl)amino) isoindoline-1,3-dione]",> 80%
8,"O=C1CCC(N2C(=O)c3ccc(NCCOCCC(=O)N4CCN(c5cccc(-c6cnc7ccc(N8CCC[C@@H]8c8cccc(F)c8)nn67)n5)CC4)cc3C2=O)C(=O)N1 (stereo partly drawn) [TR-119, 2-(2,6-Dioxopiperidin-3-yl)-5-((2-(3-(4-(6-(6-((R)-2-(3-fluorophenyl)pyrrolidin-1-yl)imidazo[1,2-b]pyridazin-3-yl)pyridin-2-yl)piperazin-1-yl)-3-oxopropoxy)ethyl)amino) isoindoline-1,3-dione]",> 80%
9,"Cc1ncsc1-c1ccc(CNC(=O)[C@@H]2C[C@@H](O)CN2C(=O)[C@@H](NC(=O)CCCCCCCCC(=O)N2CCN(c3cccc(-c4cnc5ccc(N6CCC[C@@H]6c6cccc(F)c6)nn45)n3)CC2)C(C)(C)C)cc1 [CPD-017, (28,4R)-1-((S)-2-(10-(4-(6-(6-((R)-2-(3-Fluorophenyl)pyrrolidin-1-yl)imidazo[1,2-b]pyridazin-3-yl)pyridin-2-yl)piperazin-1-yl)-10-oxodecanamido)-3,3-dimethylbutanoyl)-4-hydroxy-N-(4-(4-methylthiazol-S-yl)benzyl)pyrrolidine-2-carboxamide]",< 50%
10,"Cc1ncsc1-c1ccc(CNC(=O)[C@@H]2C[C@@H](O)CN2C(=O)[C@@H](NC(=O)CCOCCC(=O)N2CCN(c3ccc(C(=O)Nc4n[nH]c5ccc(Cc6cc(F)cc(F)c6)cc45)c(NC4CCOCC4)c3)CC2)C(C)(C)C)cc1 [CPD-048, (28,4R)-1-((S)-2-(3-(3-(4-(4-((5-(3,5-Difluorobenzyl)-1H-indazol-3-yl)carbamoyl)-3-((tetrahydro-2H-pyran-4-yl)amino)phenyl)piperazin-1-yl)-3-oxopropoxy)propanamido)-3,3-dimethylbutanoyl)-4-hydroxy-N-(4-(4-methylthiazol-5-yl)benzyl)pyrrolidine-2-carboxamide]",< 50%
11,"O=C1CCC(N2C(=O)c3cccc(NCCC(=O)N4CCN(c5cccc(-c6cnc7ccc(N8CCC[C@@H]8c8cccc(F)c8)nn67)n5)CC4)c3C2=O)C(=O)N1 (stereo partly drawn) [CPD-026, 2-(2,6-Dioxopiperidin-3-yl)-4-((3-(4-(6-(6-((R)-2-(3-fluorophenyl)pyrrolidin-1-yl)imidazo[1,2-b]pyridazin-3-yl)pyridin-2-yl)piperazin-1-yl)-3-oxopropyl)amino) isoindoline-1,3-dione]",50 to 80%
12,"Cc1ncsc1-c1ccc(CNC(=O)[C@@H]2C[C@@H](O)CN2C(=O)[C@@H](NC(=O)CCOCCOCCOCCOCCC(=O)N2CCN(c3ccc(C(=O)Nc4n[nH]c5ccc(Cc6cc(F)cc(F)c6)cc45)c(NC4CCOCC4)c3)CC2)C(C)(C)C)cc1 [CPD-041, (2S,4R)-1-((S)-2-(tert-butyl)-19-(4-(4-((5-(3,5-Difluorobenzyl)-1H-indazol-3-yl)carbamoyl)-3-((tetrahydro-2H-pyran-4-yl)amino)phenyl)piperazin-1-yl)-4,19-dioxo-7,10,13,16-tetraoxa-3-azanonadecanoyl)-4-hydroxy-N-(4-(4-methylthiazol-5-yl)benzyl)pyrrolidine-2-carboxamide]",< 50%
13,"O=C1CCC(N2C[C@H](c3cccc(C#CCN4CCN(c5cccc(-c6cnc7ccc(N8CCC[C@@H]8c8cccc(F)c8)nn67)n5)CC4)c3)OC2=O)C(=O)N1 (stereo partly drawn) [TR-223, 3-((S)-5-(3-(3-(4-(6-(6-((R)-2-(3-fluorophenyl)pyrrolidin-1-yl)imidazo[1,2-b]pyridazin-3-yl)pyridin-2-yl)piperazin-1-yl)prop-1-yn-1-yl)phenyl)-2-oxooxazolidin-3-yl)piperidine-2,6-dione]",50 to 80%
14,"O=C1CCC(N2Cc3cc(C#CCN4CCN(c5cccc(-c6cnc7ccc(N8CCC[C@@H]8c8cccc(F)c8)nn67)n5)CC4)ccc3C2=O)C(=O)N1 (stereo partly drawn) [TR-188, 3-(5-(3-(4-(6-(6-((R)-2-(3-Fluorophenyl)pyrrolidin-1-yl)imidazo[1,2-b]pyridazin-3-yl)pyridin-2-yl)piperazin-1-yl)prop-1-yn-1-yl)-1-oxoisoindolin-2-yl)piperidine-2,6-dione]",> 80%
15,"O=C(CN1CCN(c2ccc(C(=O)Nc3n[nH]c4ccc(Cc5cc(F)cc(F)c5)cc34)c(NC3CCOCC3)c2)CC1)NCCOCCOCCOCCOCCNc1ccc2c(c1)C(=O)N(C1CCC(=O)NC1=O)C2=O (stereo not drawn) [TR-160, N-(5-(3,5-Difluorobenzyl)-1H-indazol-3-yl)-4-(4-(17-((2-(2,6-dioxopiperidin-3-yl)-1,3-dioxoisoindolin-S-yl)amino)-2-oxo-6,9,12,15-tetraoxa-3-azaheptadecyl)piperazin-1-yl)-2-((tetrahydro-2H-pyran-4-yl)amino)benzamide]",> 80%
16,"O=C1CCC(N2C(=O)c3cccc(NCCCCCCCC(=O)N4CCN(c5cccc(-c6cnc7ccc(N8CCC[C@@H]8c8cccc(F)c8)nn67)n5)CC4)c3C2=O)C(=O)N1 (stereo partly drawn) [CPD-024, 2-(2,6-Dioxopiperidin-3-yl)-4-((8-(4-(6-(6-((R)-2-(3-fluorophenyl)pyrrolidin-1-yl)imidazo[1,2-b]pyridazin-3-yl)pyridin-2-yl)piperazin-1-yl)-8-oxooctyl)amino) isoindoline-1,3-dione]",> 80%

# Same assay, conditions: KM12, 16 h, read-out: Degradation (at 10 nM)
row,SMILES,percent degradation of TPM3-TRKA protein at 0.01 µM
1,"O=C1CCC(N2C(=O)c3ccc(OCCN4CCN(c5cccc(-c6cnc7ccc(N8CCC[C@@H]8c8cccc(F)c8)nn67)n5)CC4)cc3C2=O)C(=O)N1 (stereo partly drawn) [TR-173, 2˜ (2,6-dioxopiperidin-3-yl)-5-(2-(4-(6-(6-((R)-2-(3-fluorophenyl)pyrrolidin-1-yl)imidazo[1,2-b]pyridazin-3-yl)pyridin-2-yl)piperazin-1-yl)ethoxy) isoindoline-1,3-dione]",> 80%
2,"O=C1CCC(N2C(=O)c3ccc(CCCN4CCN(c5cccc(-c6cnc7ccc(N8CCC[C@@H]8c8cccc(F)c8)nn67)n5)CC4)cc3C2=O)C(=O)N1 (stereo partly drawn) [TR-172, 2-(2,6-dioxopiperidin-3-yl)-5-(3-(4-(6-(6-((R)-2˜ (3-fluorophenyl)pyrrolidin-1-yl)imidazo[1,2-b]pyridazin-3-yl)pyridin-2-yl)piperazin-1-yl)propyl)isoindoline-1,3-dione]",> 80%
